We go through two molecules from patent US20100034944A1, “Use of Avocado Derivatives in Flavor Applications” (priority 2008, published 2010).

Each structure is given as a SMILES string.

This assay in a line: flavor descriptors of compounds tasted in salt water, chicken broth, IMP/MSG and NaCl/IMP/MSG solutions.

In the case of `C#CCCCCCCCCCCCC(O)CC(O)COC(C)=O` (stereo not drawn) [2,4-Dihydroxy-16-heptadecyn-1-yl acetate, 2,4-dihydroxy-16-heptadecyn-1-yl acetate], under “compound 10 ppm in chicken broth”, the “flavor descriptors, Chicken Broth College Inn 50% reduced Na; Fat free” value is listed as “Bitter”.
With `C=CCCCCCCCCCCCC(O)CC(O)COC(C)=O` (stereo not drawn) [2,4-dihydroxy-16-heptadecen-1-yl acetate], under “compound 10 ppm in NaCl/IMP/MSG solution”, the “flavor descriptors, NaCl 0.1% IMP 0.00359 g/L / MSG 0.0508 g/L” value is given as “Very umami”. For the setting “compound 20 ppm in IMP/MSG solution”, the “flavor descriptors, IMP 0.00359 g/L / MSG 0.0508 g/L” value is given as “Nice umami”.
